# Measured values reported in patent US20250114368A1, “COMPOSITIONS AND METHODS RELATING TO PEDIATRIC NEUROMUSCULAR DISEASES AND NEUROGENERATIVE DISORDERS” (Ann and Robert H. Lurie Children's Hospital of Chicago, priority 2023, published 2025).
# “Also recorded” adds a separate entry of the source.
# Legend:
# [1] = system: human SMA iPSC-derived motor neurons; experiment: Degeneration of human SMA iPSC-derived motor neurons (TuJ1 and Isl1-positive motor neurons as percentage of DAPI positive cells); assay type: cell-based; conditions: week 3 to week 6 in culture
# Text: FIGS. 8A-8M: Inhibition of Cdk5 signaling pathway decreases the degeneration of human SMA iPSC-derived motor neurons. (A-L) Immunostaining of human iPSC-derived motor neurons with antibodies recognizing neuronal marker TuJ1 (green in A-L), motor neuron marker Isl1 (red in A-L), and nucleus marker DAPI (blue in A-L). […] (M) Quantification of TuJ1 and Isl1-positive motor neurons as a percentage of all DAPI positive cells in a human iPSC model of SMA treated with inhibitors of Cdk5 signaling. […] Data are from four independent experiments and are mean±SEM. ** P<0.01, *** p<0.001, **** P<0.0001, Student's t test.
# (§1) Human SMA iPSC and Mouse Motor Neuron Culture. Human iPSCs were generated and differentiated as described in the Examples. Briefly, primary fibroblasts were isolated from de-identified type I SMA patients and their unaffected relatives, infected with lentiviral constructs expressing OCT4, SOX2, NANOG, and LIN28 or episomally expressed reprogramming plasmids to generate iPSCs. Retinoic acid, sonic hedgehog, cAMP, ascorbic acid, brain-derived neurotrophic factor (BDNF) and glial cell line-derived neurotrophic factor (GDNF) were used to induce iPSC spheres to differentiate into motor neurons. […] Cell death was detected by the in situ cell death detection TMR red TUNEL (Terminal Transferase dUTP Nick End Labeling) kit. […]
# [2] = system: SMA non-integrating iPSC-derived motor neurons; experiment: Motor neuron degeneration in non-integrating iPSC SMA model (Isl1+ and TuJ1+ motor neurons as percentage of DAPI-positive cells); assay type: cell-based, human; conditions: 10 μM
# Text: FIGS. 9A-C: (A) The increase of Cdk5 kinase activity in E18.5 SMA mouse spinal cord is not significant. Endogenous Cdk5 was immunoprecipitated from spinal cord lysates of E18.5 WT and SMA mice and measured kinase activity of phosphorylating Histone H1 with ^32P-γ-ATP. The same levels of Cdk5 and purified Histone H1 used in kinase assay reactions were monitored by Western blotting. Data are mean±SEM, Student's t test (n=12, P=0.0875). […] Endogenous Cdk5 was immunoprecipitated from motor neurons differentiated from WT and SMA non-integrating iPSCs. Kinase activities were quantified by the phosphorylation of Histone H1 with ^32P-γ-ATP. The same levels of Cdk5 and Histone H1 were monitored by Western blot. Data are mean±SEM, Student's t test (n=12, P<0.0001). […] Calpain inhibitor Calpeptin (10 μM) was applied to WT and SMA non-integrating iPSC-derived motor neurons. The number of Isl1+ and TuJ1+motor neurons as a percentage of all DAPI-positive cells was quantified from 1490 motor neurons in four independent experiments and are mean±SEM. ** p=0.0045, Student's t test.
# Human SMA iPSC and Mouse Motor Neuron Culture. Human iPSCs were generated and differentiated as described in the Examples. […] Cell death was detected by the in situ cell death detection TMR red TUNEL (Terminal Transferase dUTP Nick End Labeling) kit. […]
# SMA iPSC motor neurons [3] = experiment: iPSC motor neuron degeneration measured by choline acetyltransferase (ChAT) staining; assay type: cell-based, human; conditions: 10 μM
# Method: (§2) Calpeptin (10 μM) (A) was used to inhibit calpain activity, and 300 nM BML259 (B) was used to inhibit Cdk5 activity in control and SMA iPSC motor neurons. Data are from four independent experiments and are mean±SEM. ** p<0.01, *** p<0.001, Student's t test. […] Levels of different mRNA in each sample are calculated as relative to gapdh mRNA. The level of gapdh mRNA is presented as relative to the average of four samples. The measurement of each sample was repeated three times and four sets of mice were used. Results are mean±SEM. ** p<0.01, Student's t test.
# as §1
# SMA motor neuron = experiment: Dosage effect of BML259 on primary mouse motor neurons: toxic effect (cell morphology and viability, bright field microscope); assay type: cell-based; conditions: two days
# Text: (§3) Human SMA iPSC and Mouse Motor Neuron Culture. Human iPSCs were generated and differentiated as described in the Examples. Briefly, primary fibroblasts were isolated from de-identified type I SMA patients and their unaffected relatives, infected with lentiviral constructs expressing OCT4, SOX2, NANOG, and LIN28 or episomally expressed reprogramming plasmids to generate iPSCs. Retinoic acid, sonic hedgehog, cAMP, ascorbic acid, brain-derived neurotrophic factor (BDNF) and glial cell line-derived neurotrophic factor (GDNF) were used to induce iPSC spheres to differentiate into motor neurons. Primary neurons from mouse spinal cords were cultured in Neurobasal (Life Technologies) supplemented with B27 (Life Technologies) as described. Briefly, spinal cords from E12.5 mouse embryos were dissected out and dissociated with 0.25% trypsin. After enriching motor neurons with Optiprep density gradient centrifugation and BSA cushion, cells were seeded on glass cover slips coated with 20 μg/ml Poly-L-Lysine (PLL) (Sigma) and 8 μg/ml Laminin (Sigma), and grown in the presence of […] (PeproTech). Cell death was detected by the in situ cell death detection TMR red TUNEL (Terminal Transferase dUTP Nick End Labeling) kit. Cdk5 inhibitor BML259 (300 nM) (Cayman Chemical) and calpain inhibitor Calpeptin (10 μM) (Tocris Bioscience) were applied from week 3 to 6 into iPSC motor neuron medium to inhibit Cdk5 signaling.
# (§4) Different concentrations of Cdk5 inhibitor BML259 were applied on primary motor neurons from wild type and SMA mice. After two days, treated and untreated cells were compared to identify potential toxic effects of causing additional cell death by checking cell morphology and viability using a bright field microscope.
# WT motor neuron = experiment: as above; assay type: cell-based; conditions: two days
# Text: as §3, §4
# SMA motor neurons = experiment: TUNEL staining of degenerating primary spinal motor neurons cultured from Δ7 SMA mice; assay type: cell-based, mouse; conditions: 300 nM applied at 3 DIV, assayed on 6 DIV
# Text: FIGS. 4A-4D: Mitigating aberrant Cdk5 activation ameliorates the degeneration of motor neurons from SMA mice. (A-B) Primary spinal motor neurons from SMA mice cultured 6 days in vitro (6 DIV) were stained by antibodies recognizing motor neuron marker Isl1 (magenta in A, B) and pan-neuronal marker TuJ1 (green in A). DAPI nuclear staining marks all cells in the culture. (C) Western blot analysis of Cdk5 knockdown in motor neurons treated with shRNA. […] Motor neurons were infected with lentivirus on 4 DIV and cultured for another 3 days before Western blot analysis. Two examples of Cdk5 shRNA knockdown were shown, with the expression of GAPDH as loading control. (D) Quantification of TUNEL+ degenerating motor neurons from WT and SMA mice. […]
# Human SMA iPSC and Mouse Motor Neuron Culture. […] Cell death was detected by the in situ cell death detection TMR red TUNEL (Terminal Transferase dUTP Nick End Labeling) kit. […]
# Mitigating Aberrant Cdk5 Activation Reduces the Degeneration of SMA Mouse Motor Neurons. Experiments were conducted during development of embodiments herein to determine whether reducing aberrant Cdk5 activation in SMA conditions serve to ameliorate motor neuron degeneration; the degeneration of motor neurons cultured from Δ7 SMA mice and control mice by TUNEL staining was monitored. […]
# SMA iPSC motor neurons [4] = experiment: iPSC motor neuron degeneration measured by TUNEL; assay type: cell-based, human; conditions: 300 nM
# Method: as §2, §1
SMILES,"Degeneration of motor neurons (TuJ1 and Isl1-positive, % of DAPI positive cells) in human SMA iPSC culture ([1]; 10 μM)",Motor neuron degeneration in non-integrating iPSC SMA model [2],iPSC motor neuron degeneration by ChAT staining (SMA iPSC motor neurons [3]),Toxic Effect on SMA motor neuron (SMA motor neuron; 50 nM),Toxic Effect on SMA motor neuron (SMA motor neuron; 150 nM),Toxic Effect on SMA motor neuron (SMA motor neuron; 300 nM),Toxic Effect on SMA motor neuron (SMA motor neuron; 450 nM),Toxic Effect on SMA motor neuron (SMA motor neuron; 600 nM),Toxic Effect on WT motor neuron (WT motor neuron; 50 nM),Toxic Effect on WT motor neuron (WT motor neuron; 150 nM),Toxic Effect on WT motor neuron (WT motor neuron; 300 nM),Toxic Effect on WT motor neuron (WT motor neuron; 450 nM),Toxic Effect on WT motor neuron (WT motor neuron; 600 nM),TUNEL+ degenerating motor neurons from SMA mice (SMA motor neurons),"Degeneration of motor neurons (TuJ1 and Isl1-positive, % of DAPI positive cells) in human SMA iPSC culture ([1]; 300 nM)",iPSC motor neuron degeneration by TUNEL (SMA iPSC motor neurons [4])
CCCC[C@@H](C=O)NC(=O)[C@H](CC(C)C)NC(=O)OCc1ccccc1 [Calpeptin],alleviated the degeneration of Isl1-positive motor neurons; also recorded: significantly reduces the degeneration of motor neurons,significantly reduces motor neuron degeneration,reduces iPSC motor neuron degeneration,,,,,,,,,,,,,
"CC(C)c1cnc(NC(=O)Cc2ccccc2)s1 [BML259, N-(5-isopropyl-thiazol-2-yl)phenylacetamide]",,,,no,no,no,strong,very strong,no,no,no,weak,strong,significantly reduced the degeneration of SMA motor neurons,alleviated the degeneration of Isl1-positive motor neurons; also recorded: significantly reduces the degeneration of motor neurons,reduces iPSC motor neuron degeneration
